# From patent publication US10118903B2, “Aminotriazole-based KDM1A inhibitors as epigenetic modulators” (MUSC FOUNDATION FOR RESEARCH DEVELOPMENT, priority 2014, dated 2018)
# Molecular target: T1, human recombinant LSD1 (Homo sapiens, UniProt O60341)
# T1 construct: purchased Cayman Chemical Item #700120
# Assay: LSD1 inhibitor screening assay (Cayman Chemical kit, fluorometric)
# Assay type: biochemical
# Conditions: 10 μM compound; Chembridge analogues table
# Description: LSD1 Inhibitor Screening Assay:
# In short, 10 μM of compound was combined with the fluorometic substrate 10-acetyl-3,7-dihydroxyphenoxazine, horseradish peroxidase, human recombinant LSD1, and 100 μM dimethylated lysine at residue 4 [ARTK(diMe)[…]] (Seq. ID No: 1) for 30 mins at 37° C. Plates were read using an excitation wavelength of 535 nm and an emission wavelength of 590 nm with a SpectraMax M5 Microplate reader.
row,inhibition at 10 µM [%],Molecule
1,27.7 ± 9,"Fc1ccc(COc2ccc(Cl)cc2CNc2nc[nH]n2)cc1 [Compound C2, N-(5-chloro-2-((4-fluorobenzyl)oxy)benzyl)-1H-1,2,4-triazol-3-amine]"
2,30.6 ± 6.4,"Fc1ccccc1COc1ccc(Cl)cc1CNc1nc[nH]n1 [Compound C3, N-(5-chloro-2-((2-fluorobenzyl)oxy)benzyl)-1H-1,2,4-triazol-3-amine]"
3,2.2 ± 6.9,"Clc1ccc(CNc2nc[nH]n2)c(Cl)c1 [Compound C4, N-(2,4-dichlorobenzyl)-1H-1,2,4-triazol-3-amine]"
4,-3.1 ± 7.8,"COc1cccc(NCc2nn[nH]n2)c1OCc1ccc(F)cc1Cl [Compound C5, N-((2H-tetrazol-5-yl)methyl)-2-((2-chloro-4-fluorobenzyl)oxy)-3-methoxyaniline]"
5,4.6 ± 6.9,"Clc1ccccc1CNc1nc[nH]n1 [Compound C6, N-(2-chlorobenzyl)-1H-1,2,4-triazol-3-amine]"
6,18.1 ± 8.2,"COc1cccc(CNc2nnc[nH]2)c1OCc1ccccc1Cl [Compound C7, N-(2((2-chlorobenzyl)oxy)-3-methoxybenzyl)-4H-1,2,4-triazo1-3-amine]"
7,6.9 ± 7.5,"Cc1ccc(COc2ccc(Cl)cc2CNc2nn[nH]n2)cc1 [Compound C8, N-(5-chloro-2-((4-methylbenzyl)oxy)benzyl)-2H-tetrazol-5-amine]"
8,30.9 ± 7.7,"Clc1cccc(Cl)c1CNc1nc[nH]n1 [Compound C9, N-(2,6-dichlorobenzyl)-1H-1,2,4-triazol-3-amine]"
9,-3 ± 12.7,"CCOc1cc(Cl)cc(CNc2nc[nH]n2)c1 [Compound C10, N-(3-chloro-5-ethoxybenzyl)-1H-1,2,4-triazol-3-amine]"
10,19.9 ± 8.4,"Clc1ccc(OCc2ccccc2)c(CNc2nn[nH]n2)c1 [Compound C11, N-(2-(benzyloxy)-5-chlorobenzyl)-2H-tetrazol-5-amine]"
11,22.1 ± 7.3,"COc1cccc(CNc2nn[nH]n2)c1OCc1ccccc1Cl [Compound C12, N-(2-((2-chlorobenzyl)oxy)-3-methoxybenzyl)-2H-tetrazol-5-amine]"
12,30.8 ± 5.7,"COc1ccc(Cl)cc1CNc1nn[nH]n1 [Compound C13, N-(5-chloro-2-methoxybenzyl)-2H-tetrazol-5-amine]"
13,20.8 ± 5,"CCOc1ccc(Cl)cc1CNc1nn[nH]n1 [Compound C14, N-(5-chloro-2-ethoxybenzyl)-2H-tetrazol-5-amine]"

# Same assay, conditions: 10 μM compound; synthetic analogues of C1, Table 2
row,Molecule,inhibition at 10 µM [%]
1,"Cc1ccc(Oc2cccc(Cl)c2CNc2nnc(N)[nH]2)cc1 [Compound 5b, N^3-(2-chloro-6-(p-tolyloxy)benzyl)-4H-1,2,4-triazole-3,5-diamine]",59.3 ± 6.1
2,"Cc1ccc(C(C)C)c(Oc2cccc(Cl)c2CNc2nnc(N)[nH]2)c1 [Compound 5c, N^3-(2-chloro-6-(2-isopropyl-5-methylphenoxy)benzyl)-4H-1,2,4-triazole-3,5-diamine]",56.3 ± 3.2
3,"COc1cccc(Oc2cccc(Cl)c2CNc2nnc(N)[nH]2)c1 [Compound 5d, N^3-(2-chloro-6-(3-methoxyphenoxy)benzyl)-4H-1,2,4-triazole-3,5-diamine]",44.6 ± 5.1
4,Nc1nnc(NCc2ccccc2)[nH]1 [Compound 5e],41 ± 17.4
5,"CC(C)(C)c1ccc(Oc2cccc(Cl)c2CNc2nnc(N)[nH]2)cc1 [Compound 5f, N^3-(2-(4-(tert-butyl)phenoxy)-6-chlorobenzyl)-4H-1,2,4-triazole-3,5-diamine]",58.2 ± 8.8
6,"Cc1cc(C)cc(Oc2cccc(Cl)c2CNc2nnc(N)[nH]2)c1 [Compound 5g, N^3-(2-chloro-6-(3,5-dimethylphenoxy)benzyl)-4H-1,2,4-triazole-3,5-diamine]",67.9 ± 6.5
7,"Nc1nnc(NCc2c(Cl)cccc2Oc2cc(C(F)(F)F)cc(C(F)(F)F)c2)[nH]1 [Compound 5h, N^3-(2-(3,5-bis(trifluoromethyl)phenoxy)-6-chlorobenzyl)-4H-1,2,4-triazole-3,5-diamine]",44.9 ± 4.6
8,"Nc1nnc(NCc2c(Cl)cccc2Oc2ccc(Br)cc2C(F)(F)F)[nH]1 [Compound 5k, N^3-(2-(4-bromo-2-(trifluoromethyl)phenoxy)-6-chlorobenzyl)-4H-1,2,4-triazole-3,5-diamine]",67.8 ± 5.4
9,"COc1cc(C)ccc1Oc1cccc(Cl)c1CNc1nnc(N)[nH]1 [Compound 5m, N^3-(2-chloro-6-(2-methoxy-4-methylphenoxy)benzyl)-4H-1,2,4-triazole-3,5-diamine]",84.7 ± 3.2
10,"COc1cc(OC)cc(Oc2cccc(Cl)c2CNc2nnc(N)[nH]2)c1 [Compound 5n, N^3-(2-chloro-6-(3,5-dimethoxyphenoxy)benzyl)-4H-1,2,4-triazole-3,5-diamine]",63.3 ± 8.6
11,Cc1ccccc1Oc1cccc(Cl)c1CNc1nnc(N)[nH]1 [Compound 5q],74.2 ± 5.2
12,"Nc1nnc(NCc2c(Cl)cccc2Oc2ccc3c(c2)OCO3)[nH]1 [Compound 5r, N^3-(2-(benzo[d][1,3]dioxol-5-yloxy)-6-chlorobenzyl)-4H-1,2,4-triazole-3,5-diamine]",65.8 ± 6.4
13,"COc1ccc(Sc2cccc(Cl)c2CNc2nnc(N)[nH]2)cc1OC [Compound 5t, N^3-(2-chloro-6-((3,4-dimethoxyphenyl)thio)benzyl)-4H-1,2,4-triazole-3,5-diamine]",53.2 ± 1.7

# Further lines, results first:
row,inhibition at 10 µM [%],Molecule
1,73.1 ± 1.6,COc1cccc(Cl)c1CNc1nc(N)n[nH]1 [Compound H1]
2,95.3 ± 2.8,Nc1n[nH]c(NCc2c(Cl)cccc2Oc2cccc3ccccc23)n1 [Compound M1]
3,66.8 ± 4.4,Nc1n[nH]c(NCc2c(Cl)cccc2Oc2ccc(-c3ccccc3)cc2)n1 [Compound M3]
4,77.7 ± 2.9,CCOc1cc(C)ccc1Oc1cccc(Cl)c1CNc1nc(N)n[nH]1 [Compound M4]
5,67.6 ± 3.7,Nc1n[nH]c(NCc2c(Cl)cccc2Oc2cccc3cc[nH]c23)n1 [Compound M5]
6,76.4 ± 2.2,Nc1n[nH]c(NCc2c(Cl)cccc2Oc2ccc(F)cc2)n1 [Compound M6]
7,67.6 ± 6.2,COc1cc(Oc2cccc(Cl)c2CNc2nc(N)n[nH]2)cc(OC)c1OC [Compound M7]
8,56 ± 4.1,COc1cc(Oc2ccccc2CNc2nc(N)n[nH]2)cc(OC)c1OC [Compound M8]
9,78.1 ± 2.6,Nc1n[nH]c(NCc2ccccc2Oc2cccc3ccccc23)n1 [Compound M9]
10,73.8 ± 4.4,CCOc1cc(C)ccc1Oc1ccccc1CNc1nc(N)n[nH]1 [Compound M10]

# Tested on: mouse heart
# Assay: Langendorff isolated heart model, ischemia/reperfusion
# Conditions: 1 hour pre-treatment with 1.0 μM; versus vehicle
# Description: (§1) In the Langendorff preparation, the heart is removed with preservation of a portion of the afferent and efferent blood vessels; it is then perfused in a reverse fashion via the aorta, usually with a nutrient rich, oxygenated solution (e.g. Krebs-Henseleit solution or Tyrode's solution). The backwards pressure causes the aortic valve to shut, forcing the solution into the coronary vessels, which normally supply the heart tissue with blood. This feeds nutrients and oxygen to the cardiac muscle, allowing it to continue beating for several hours after its removal from the animal. This is a useful preparation because it allows the addition of drugs (via the perfusate) and observation of their effect on the heart without the complications involved with in vivo experimentation, such as neuronal and hormonal effects from living animal (Broadley, K. J., 1970). A pressure transducer is inserted to measure a number of cardiac performance parameters including left ventricular developed pressure, left ventricular end diastolic pressure, heart rate, etc. Following the Langendorff procedure, the myocardium is cut into cross sections, and infarcted tissue is identified by the inability to take up stain; thus infarcted areas appear white, while healthy areas appear red.
# The compounds described herein may be used to protect the myocardium from injury following an ischemic event. In FIG. 6, a mouse heart was subjected to ischemia by ligation of the afferent vessel in a Langendorff preparation, as described above. Prior to the induction of ischemia, hearts were either pre-treated with vehicle, verlindamycin or C1. […] In FIG. 8, the results of an experiment to measure infarcted tissue in a myocardial cross-section are shown. Results are expressed as a percentage of the area of infarct with respect to total surface area. […] The HDAC1/CoREST/LSD1 complex was pulled down with an LSD1 antibody and a Western blot for CoREST was performed.
row,Molecule,left ventricular end diastolic pressure
1,"Verlindamycin tetrahydrochloride [Compound 2d, reference compound]",reduced to near-normal levels

# Same assay, conditions: pre-treatment before ischemia; after reperfusion; versus vehicle
row,Molecule,left ventricular developed pressure
1,"Verlindamycin tetrahydrochloride [Compound 2d, reference compound]",restored to nearly normal levels

# Tested on: murine myocardium
# Assay: Infarct area in myocardial cross-section after induced myocardial ischemia
# Assay type: in vivo, mouse
# Conditions: 10 mg/kg; versus vehicle
# Description: as §1, with “Following the Langendorff procedure, the myocardium is cut into cross sections, and infarcted tissue is identified by the inability to take up stain; thus infarcted areas appear white, while healthy areas appear red.” left out
# The compounds described herein may be used to protect the myocardium from injury following an ischemic event. […] Results are expressed as a percentage of the area of infarct with respect to total surface area. […]
row,Molecule,infarct area as a percentage of the total left ventricular area
1,"Verlindamycin tetrahydrochloride [Compound 2d, reference compound]",significantly more effective than treatment with vehicle

# Tested on: LSD1:CoREST complex
# Assay: Pull-down of HDAC1/CoREST/LSD1 complex with LSD1 antibody, Western blot for CoREST
# Assay type: cell-based
# Conditions: primary feline cardiomyocytes, 3 h, 1 μM; LSD1 antibody pull-down
# Description: Co-immunoprecipitation analysis for LSD1:CoREST complex following treatment from primary rat cardiomyocytes with 5 μM and 1 μM C1 was performed as described above. Lysates pulled down with LSD1 antibody and western blotted for CoREST (n=2).
row,Molecule,association between LSD1 and CoREST
1,"Verlindamycin tetrahydrochloride [Compound 2d, reference compound]",Only compound C1 disrupted the association

# Tested on: not listed separately
# Assay: Solubility noted in the LSD1 screen
# Assay type: physicochemical
# Conditions: LSD1 screen at 10 μM
row,solubility (reason why % inhibition was not determined),Molecule
1,Not Determined (Insoluble),"Nc1nnc(NCc2c(Cl)cccc2Oc2ccc(SC(F)(F)F)cc2)[nH]1 [Compound 5i, N^3-(2-chloro-6-(4-((trifluoromethyl)thio)phenoxy)benzyl)-4H-1,2,4-triazole-3,5-diamine]"
2,Not Determined (Insolube),Nc1nnc(NCc2c(Cl)cccc2Oc2ccc(Br)cc2Br)[nH]1 [Compound 5j]
3,Not Determined (Insolube),"CSc1ccc(Oc2cccc(Cl)c2CNc2nnc(N)[nH]2)cc1 [Compound 5l, N^3-(2-chloro-6-(4-((methyl)thio)phenoxy)benzyl)-4H-1,2,4-triazole-3,5-diamine]"
